The target of one experiment is T1, Human KRAS G12V (Homo sapiens, UniProt P01116, G12V).
T1 construct: purchased PerkinElmer
Briefly: KRAS-G12V/GTP binding assay (HTRF kit). The conditions noted are these: 25° C., 1 h. The procedure: Test Example 2: KRAS G12V Binding Assay
In this method, the inhibitory effects of the compounds on the binding of KRAS G12V to GTP were assayed by a homogeneous time-resolved fluorescence (HTRF) technique using a KRAS-G12V/GTP binding assay kit (PerkinElmer).
The experimental procedures were as follows (refer to the kit instructions for detailed test methods): the compounds of the present disclosure were each firstly dissolved in DMSO at a concentration of 20 mM, and then diluted in an equal gradient with a buffer in the kit, so that the final concentrations of the test compounds in the reaction system were in a range of 0.02-5000 nM, and the final concentration of DMSO was 0.5%. 5 μL of each compound was incubated with 5 μL of 1× Human KRAS G12V 6His-tagged (PerkinElmer), 5 µL of 1×6His Eu Cryptate Antibody (PerkinElmer), and 5 μL of 1×GTP Red reagent (PerkinElmer) in a 384-well plate (Greiner) at 25° C. for 1 h. After the incubation was completed, the fluorescence intensity of each well was measured at the excitation wavelength of 337 nm and the emission wavelengths of 620 nm and 665 nm with an EnVision microplate reader (PerkinElmer) in the HTRF mode, and Ratio values were calculated using the formula: Ratio=(665 nm/620 nm)×10^4. The inhibition rates of the compounds at each concentration were calculated by comparing the fluorescence intensity ratio with that of the control group. Then non-linear curve fittings for logarithmic concentration-inhibition rate were performed using the GraphPad Prism 8 analysis software, and the IC50 values of the compounds were obtained (Table 3).
Background: TR-FRET usually uses a lanthanide donor and a delayed reading to cut background.

In experiment [1] the test system is KRAS G12D mutant human lung cancer cell A427. Briefly: 3D cell proliferation inhibition assay, A427. Conditions: A-427, 168 h, 3D culture, 7 days, CTG. It counts as cell-based. The method, boiled down: (§1)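 Seven-day 3D growth at 37 °C in low-adsorption wells, 5×10^2 cells/well except MKN1 (1×10^3), final compound range 10000–0.026 nM in 0.2% DMSO. CTG luminescence read-out; percent inhibition set against DMSO and medium-only wells, IC50 by curve fitting.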

For experiment [2], the system named is KRAS G12D mutant human gastric cancer cell AGS. Briefly: 3D cell proliferation inhibition assay, AGS. The conditions noted are these: 168 h, 3D culture, 7 days, CTG. The class given is cell-based. The essentials:
as §1

In experiment [3] the test system is KRAS G12D mutant human metastatic pancreatic cancer cell AsPc-1. Briefly: 3D cell proliferation inhibition assay, AsPc-1. It counts as cell-based. Conditions: ASPC1, 168 h, 3D culture, 7 days, CTG. The essentials: as §1
Experiment [4] concerns KRAS G12C mutant human non-small cell lung cancer cell NCI-H358. Briefly: 3D cell proliferation inhibition assay, NCI-H358. Conditions: NCI-H358, 168 h, 3D culture, 7 days, CTG. It counts as cell-based. The essentials:
as §1

The subject of experiment [5] is KRAS G12V mutant human lung squamous carcinoma cell SW900. Briefly: 3D cell proliferation inhibition assay, SW900. The class given is cell-based. Conditions: SW900, 168 h, 3D culture, 7 days, CTG.
Experiment [6] concerns KRAS G12V mutant human colorectal cancer cell SW620. Briefly: 3D cell proliferation inhibition assay, SW620. It counts as cell-based. The conditions noted are these: SW-620, 168 h, 3D culture, 7 days, CTG. The method, boiled down:
as §1

For experiment [7], the system named is KRAS G13D mutant human colorectal cancer epithelial cell DLD-1. Briefly: 3D cell proliferation inhibition assay, DLD-1. The class given is cell-based. The conditions noted are these: DLD-1, 168 h, 3D culture, 7 days, CTG. The method, boiled down: as §1
For experiment [8], the system named is KRAS WT human gastric cancer cell MKN1. Briefly: 3D cell proliferation inhibition assay, MKN1. It counts as cell-based. The conditions noted are these: MKN-1, 168 h, 3D culture, 7 days, CTG. The method, boiled down:
as §1

T1 sequence (P01116 1-188 isoform P01116-2 G12V): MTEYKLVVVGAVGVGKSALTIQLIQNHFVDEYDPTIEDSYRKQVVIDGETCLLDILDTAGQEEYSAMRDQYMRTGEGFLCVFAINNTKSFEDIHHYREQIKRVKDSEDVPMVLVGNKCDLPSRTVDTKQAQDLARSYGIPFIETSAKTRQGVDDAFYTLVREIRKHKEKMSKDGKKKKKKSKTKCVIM

For the compound `C#Cc1c(F)ccc2cc(O)cc(-c3ncc4c(N5CCC[C@@](C)(O)C5)nc(OCC5(CN6CCN(CC7CCC8(CC7)CCN(C(=O)c7ccc(Cl)c(N9CCC(=O)NC9=O)c7)CC8)CC6)CC5)nc4c3F)c12` [Example 1, (R)-1-(2-chloro-5-(9-((4-((1-(((7-(8-ethynyl-7-fluoro-3-hydroxynaphthalen-1-yl)-8-fluoro-4-(3-hydroxy-3-methylpiperidin-1-yl)pyrido[4,3-d]pyrimidin-2-yl)oxy)methyl)cyclopropyl)methyl)piperazin-1-yl)methyl)-3-azaspiro[5.5]undecane-3-carbonyl)phenyl)dihydropyrimidine-2,4(1H,3H)-dione], the IC50 (as a rule, the point on the concentration scale where inhibition reaches its midpoint) at Human KRAS G12V was not above 500 nM; in experiment [1], not above 50 nM; in experiment [2], not above 50 nM; in experiment [3] it was not above 50 nM; in experiment [4], not above 50 nM; in [5] it was not above 50 nM. The results for the IC50 in experiment [6], in experiment [7] and in [8] were 1.41 nM, not above 50 nM and not above 50 nM, respectively.
Regarding `CCc1c(F)ccc2cc(O)cc(-c3ncc4c(N5CCC[C@@](C)(O)C5)nc(OCC5(CN6CCN(CC7CCC8(CC7)CCN(C(=O)c7ccc(Cl)c(N9CCC(=O)NC9=O)c7)CC8)CC6)CC5)nc4c3F)c12` [Example 2, (R)-1-(2-chloro-5-(9-((4-((1-(((7-(8-ethyl-7-fluoro-3-hydroxynaphthalen-1-yl)-8-fluoro-4-(3-hydroxy-3-methylpiperidin-1-yl)pyrido[4,3-d]pyrimidin-2-yl)oxy)methyl)cyclopropyl)methyl)piperazin-1-yl)methyl)-3-azaspiro[5.5]undecane-3-carbonyl)phenyl)dihydropyrimidine-2,4(1H,3H)-dione], the concentration for half-maximal inhibition (IC50) at Human KRAS G12V was not above 500 nM; in [1], not above 50 nM; in experiment [2] it was not above 50 nM; in [3], not above 50 nM; in experiment [4] it was not above 50 nM; in experiment [5] it was not above 50 nM. For the same compound, the IC50 in experiment [6] is 1.85 nM; in experiment [7], not above 50 nM; in experiment [8], not above 50 nM.
For the compound `CCc1cccc2cc(O)cc(-c3ncc4c(N5CCC[C@@](C)(O)C5)nc(OCC5(CN6CCN(CC7CCC8(CC7)CCN(C(=O)c7ccc(Cl)c(N9CCC(=O)NC9=O)c7)CC8)CC6)CC5)nc4c3F)c12` [Example 3, (R)-1-(2-chloro-5-(9-((4-((1-(((7-(8-ethyl-3-hydroxynaphthalen-1-yl)-8-fluoro-4-(3-hydroxy-3-methylpiperidin-1-yl)pyrido[4,3-d]pyrimidin-2-yl)oxy)methyl)cyclopropyl)methyl)piperazin-1-yl)methyl)-3-azaspiro[5.5]undecane-3-carbonyl)phenyl)dihydropyrimidine-2,4(1H,3H)-dione], the 50% inhibitory concentration (IC50) on Human KRAS G12V was not above 500 nM; in experiment [1] it was not above 50 nM; in experiment [2], not above 50 nM; in experiment [3] it was not above 50 nM; in [4] it was not above 50 nM; in experiment [5], 100 to 500 nM. Also, the values for the IC50 in experiment [6], in experiment [7] and in experiment [8] were 2.52 nM, not above 50 nM and not above 50 nM, respectively.
For the compound `C#Cc1c(F)ccc2cc(O)cc(-c3ncc4c(N5CCC[C@@](C)(O)C5)nc(OCC5(CN6CCN(CC7CCC8(CC7)CCN(C(=O)c7ccc(C)c(N9CCC(=O)NC9=O)c7)CC8)CC6)CC5)nc4c3F)c12` [Example 6, (R)-1-(5-(9-((4-((1-(((7-(8-ethynyl-7-fluoro-3-hydroxynaphthalen-1-yl)-8-fluoro-4-(3-hydroxy-3-methylpiperidin-1-yl)pyrido[4,3-d]pyrimidin-2-yl)oxy)methyl)cyclopropyl)methyl)piperazin-1-yl)methyl)-3-azaspiro[5.5]undecane-3-carbonyl)-2-methylphenyl)dihydropyrimidine-2,4(1H,3H)-dione], the IC50 is not above 500 nM at Human KRAS G12V; not above 50 nM in experiment [1]; not above 50 nM in [2]; not above 50 nM in experiment [3]; not above 50 nM in [4]; not above 50 nM in experiment [5]. Moreover, the IC50 in experiment [6] was 1.28 nM; in experiment [7] it was not above 50 nM; in [8] it was not above 50 nM.
Consider `C#Cc1c(F)ccc2cc(O)cc(-c3ncc4c(N5CCC[C@@](C)(O)C5)nc(OCC5(CN6CCN(CC7CCC8(CC7)CCN(C(=O)c7ccc(OC)c(N9CCC(=O)NC9=O)c7)CC8)CC6)CC5)nc4c3F)c12` [Example 7, (R)-1-(5-(9-((4-((1-(((7-(8-ethynyl-7-fluoro-3-hydroxynaphthalen-1-yl)-8-fluoro-4-(3-hydroxy-3-methylpiperidin-1-yl)pyrido[4,3-d]pyrimidin-2-yl)oxy)methyl)cyclopropyl)methyl)piperazin-1-yl)methyl)-3-azaspiro[5.5]undecane-3-carbonyl)-2-methoxyphenyl)dihydropyrimidine-2,4(1H,3H)-dione], for which the IC50 is not above 500 nM at Human KRAS G12V; not above 50 nM in experiment [1]; not above 50 nM in [2]; not above 50 nM in experiment [3]; not above 50 nM in experiment [4]; not above 50 nM in experiment [5]. Besides, the IC50 is 1.81 nM in [6], not above 50 nM in [7] and not above 50 nM in experiment [8].
On to `C#Cc1cccc2cc(O)cc(-c3ncc4c(N5CCC[C@@](C)(O)C5)nc(OCC5(CN6CCN(CC7CCC8(CC7)CCN(C(=O)c7ccc(Cl)c(N9CCC(=O)NC9=O)c7)CC8)CC6)CC5)nc4c3F)c12` [Example 11, (R)-1-(2-chloro-5-(9-((4-((1-(((7-(8-ethynyl-3-hydroxynaphthalen-1-yl)-8-fluoro-4-(3-hydroxy-3-methylpiperidin-1-yl)pyrido[4,3-d]pyrimidin-2-yl)oxy)methyl)cyclopropyl)methyl)piperazin-1-yl)methyl)-3-azaspiro[5.5]undecane-3-carbonyl)phenyl)dihydropyrimidine-2,4(1H,3H)-dione], for which the IC50 at Human KRAS G12V was 500 to 1000 nM; in experiment [1], 50 to 100 nM; in [2], not above 50 nM; in experiment [3], not above 50 nM; in experiment [4], not above 50 nM; in experiment [5], not above 50 nM. The IC50 was 5.43 nM in experiment [6], not above 50 nM in [7] and not above 50 nM in experiment [8].

The record behind these values is patent US20260167622A1, “PAN-KRAS DEGRADING AGENT, AND PREPARATION METHOD THEREFOR AND USE THEREOF” (LEADINGTAC PHARMACEUTICAL (SHAOXING) CO., LTD., priority 2022, published 2026).
